The numbers were not newly measured in patent US20240301505A1, “URINARY TRACT CANCER TREATMENT GUIDED BY MUTATIONAL LANDSCAPE” (BROWN UNIVERSITY, priority 2021, published 2024), which cites them from elsewhere.

The structures appear in SMILES notation.

One data set concerns the target T1, CHK1 (Homo sapiens, UniProt O14757).
T1 sequence (O14757 1-476): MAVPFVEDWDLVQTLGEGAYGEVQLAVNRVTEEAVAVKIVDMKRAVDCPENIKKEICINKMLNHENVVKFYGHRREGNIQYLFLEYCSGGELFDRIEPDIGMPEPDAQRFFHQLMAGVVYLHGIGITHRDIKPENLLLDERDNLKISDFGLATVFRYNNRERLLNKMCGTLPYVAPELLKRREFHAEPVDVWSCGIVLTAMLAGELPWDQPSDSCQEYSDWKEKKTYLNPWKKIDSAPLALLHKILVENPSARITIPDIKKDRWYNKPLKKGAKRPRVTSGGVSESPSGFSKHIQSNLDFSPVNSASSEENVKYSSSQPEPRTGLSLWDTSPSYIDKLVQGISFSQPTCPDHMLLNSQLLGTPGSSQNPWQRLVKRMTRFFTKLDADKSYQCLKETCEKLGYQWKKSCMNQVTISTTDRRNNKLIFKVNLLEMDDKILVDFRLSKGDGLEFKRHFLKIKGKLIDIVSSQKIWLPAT
Particulars: in combination with gemcitabine and irinotecan.

The test system of data set [1] is p21 and p53 protein expression. The settings on record: accompanied by an increase in DNA damage and intracellular hydroxyl radicals.
Data set [2] concerns Bladder tumors with ARID1A deficiencies.
The subject of a further data set is p21 protein expression. The settings on record: upon treatment.
The target in a further data set is CHK2 (Homo sapiens, UniProt O96017). The settings on record: in combination with topotecan or camptothecin.
In data set [3] the test system is advanced breast cancer with mutations in PIK3CA, AKT1 or PTEN and/or PTEN loss. The settings on record: monotherapy, patients with advanced breast cancer with mutations in PIK3CA.

CHK2, sequence (O96017 whole entry): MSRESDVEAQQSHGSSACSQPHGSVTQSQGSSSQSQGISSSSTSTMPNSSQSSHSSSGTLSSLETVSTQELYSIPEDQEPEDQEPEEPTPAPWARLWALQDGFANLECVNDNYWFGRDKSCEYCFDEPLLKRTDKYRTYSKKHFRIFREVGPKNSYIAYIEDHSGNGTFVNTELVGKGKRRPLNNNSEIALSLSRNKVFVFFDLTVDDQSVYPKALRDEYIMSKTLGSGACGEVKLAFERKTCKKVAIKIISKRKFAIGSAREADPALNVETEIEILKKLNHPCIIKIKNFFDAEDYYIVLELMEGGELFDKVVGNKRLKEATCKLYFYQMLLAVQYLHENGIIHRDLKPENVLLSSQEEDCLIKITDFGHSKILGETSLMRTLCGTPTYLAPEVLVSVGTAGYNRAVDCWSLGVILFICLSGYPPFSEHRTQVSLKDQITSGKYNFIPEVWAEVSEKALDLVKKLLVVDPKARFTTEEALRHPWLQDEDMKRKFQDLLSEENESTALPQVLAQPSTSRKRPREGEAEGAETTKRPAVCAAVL

With `Nc1ccc(-c2ccc(N)cc2)cc1` [benzidine], in the data set on p21, the “p21 mRNA levels” value is “downregulate p21 mRNA levels” and the p21 protein levels entry was “decrease p21 protein levels”.
On to `COc1cc(Nc2cnc(C#N)c(O[C@H](C)CN(C)C)n2)ncc1-c1cnn(C)c1` [CCT244747], for which, at CHK1, the anti-tumor activity result is on record as “showed anti-tumor activity”.
Consider `C[As](C)(O)=S` [dimethylmonothioarsinic acid], for which the “p21 and p53 protein expression” value in data set [1] was “decrease in both p21 and p53 protein expression”.
Take `CC[C@H](C)n1cc(C)c2c(C(=O)NCc3c(C)cc(C)[nH]c3=O)cc(-c3ccc(N4CCNCC4)nc3)cc21` [GSK-126]: the sensitivity of tumors entry in data set [2] is listed as “sensitive”.
Consider `CCCCN(CCCCO)N=O` [N-butyl-N-(4-hydroxybutyl)nitrosamine], for which the p21 protein expression result with p21 protein expression is given as “decrease in p21 protein expression”.
Consider `Nc1ccc(-c2ccccc2)cc1` [4-ABP, 4-Aminobiphenyl], for which, in the data set with G:C base pairs, the “mutations induced occurring at G:C base pairs” value is 82.9%.
For the compound `C/C(=N\N=C(N)N)c1ccc(NC(=O)c2cc3cccc([N+](=O)[O-])c3[nH]2)cc1` [PV1019], the activity in combination result on CHK2 is “showed enhanced activity”.
On to `NC1(c2ccc(-c3nc4ccn5c(=O)[nH]nc5c4cc3-c3ccccc3)cc2)CCC1` [MK-2206], for which the clinical activity entry in data set [3] is given as “limited clinical activity”.
